# Reference: patent US12312419B2, “Hemiasterlin derivative having cysteine residue” (priority 2019, dated 2025)
# Assays:
# [1] = tested on: Karpas-299 cells; assay: Cellular toxicity test (1), CellTiter-Glo cell viability; format: cell-based, human; conditions: Homo sapiens, 96 h; Karpas-299; cultured 4 days; cell viability
# Description: Karpas-299 cells (European Collection of Authenticated Cell Cultures, hereinafter, ECACC), which are human lymphoma cell lines, were cultured in RPMI 1640 (GIBCO) containing 10% fetal bovine serum (MP Biomedicals) (hereinafter, referred to as the “culture medium”). Cells were prepared to be 2×10^5 cells/mL in the culture medium, and were added to a 96 well microplate for cell culturing in an amount of 50 μL for each well. Compounds of Examples or the Comparative Example compound 4 times diluted with the culture medium in 8 stages were added to the microplate in an amount of 50 μL for each well. These were cultured at 37° C. under 5% CO2 for 4 days. After culturing, the microplate was taken out from the incubator, and was left at rest at room temperature for 10 minutes. To each well, 50 μL of CellTiter-Glo Luminescent Cell Viability Assay (Promega) was added, and the resultant mixture was stirred. This mixture was incubated at a dark place for 20 minutes. Using a microplate luminometer, luminescence at each well was measured, thereby calculating the cell viability. From the value of the cell viability, the IC50 value was calculated.
# The IC50 value was calculated by the following formula: IC50(nM)=antilog(LOG10(a/b)×(e−d)/(c−d)+LOG10b) • a: concentration a of test substance • b: concentration b of test substance • c: cell viability upon adding test substance with concentration a • d: cell viability upon adding test substance with concentration b • e: intermediate value between maximum and minimum among cell viabilities upon adding test substances with different concentrations (a and b are concentrations crossing the cell viability e, and a>b is indicated).
# The cell viability at each concentration was calculated by the following formula: Cell Viability (%)=a′/b′×100 • a′: mean value of luminescence amount of wells to which test substance was added (n=6) • b′: mean value of luminescence amount of wells to which test substance was not added (n=6) • (n represents the number of evaluations performed per test substance concentration).
# [2] = tested on: porcine tubulin; assay: Evaluation of activity for inhibiting microtubule polymerization using porcine tubulins (2); format: biochemical; conditions: compound 9.1 μM; 60 minutes after assay initiation; relative to wells without compound; lower = stronger inhibition
# Description: (§1) Using a tubulin polymerization inhibition assay kit (catalog number: BK006P) purchased from Cytoskeleton Inc., the polymerization inhibitory activity of compounds of Examples with a concentration of 9.1 μM was evaluated in accordance with the protocol appended to the kit. To a 96 well microplate, 80 mM PIPES pH 6.9, 2 mM MgCl, 0.5 mM EGTA and 5% DMSO buffered solution of the compound to be evaluated was added in an amount of 10 μL for each well, and to these wells, 3 mg/mL porcine tubulin 80 mM PIPES pH 6.9, 2 mM MgCl, 0.5 mM EGTA, 1 mM GTP and 10.2% glycerol solution was added in an amount of 100 μL for each well. In order to examine a state in which tubulins polymerize over time, the absorbance at 340 nm was measured at 37° C., using a microplate reader. As the polymerization of tubulins progresses, the absorbance at 340 nm rises.
# The tubulin polymerization inhibitory activity was evaluated based on the proportion of polymerized tubulins 60 minutes after the assay initiation. Specifically, the microtubule polymerization rate (%) was calculated by dividing the absorbance of tubulins that had polymerized at wells to which the compound had been added by the absorbance of tubulins that had polymerized at wells to which the compound had not been added, and multiplying the obtained value by 100.
# [3] = tested on: porcine tubulin; assay: Evaluation of activity for inhibiting microtubule polymerization using porcine tubulins (1); format: biochemical; conditions: compound 9.1 μM; absorbance at 340 nm at 37° C. over time; FIG. 1
# Description: as §1, with “In summary of the protocol, to” for “To”, “mg/ml” for “mg/mL”
SMILES,IC50 [1] [nM],Microtubule polymerization rate (%) [2] [%],activity for inhibiting microtubule polymerization [3]
"CN[C@H](C(=O)N[C@H](C(=O)N(C)[C@H](/C=C(\C)C(=O)NCCCCNC(=O)CCCCCN1C(=O)CC(SC[C@H](N)C(=O)O)C1=O)C(C)C)C(C)(C)C)C(C)(C)c1cn(C)c2ccccc12 (some centres unmarked) [Comparative Example compound 2, reference compound]",30,0,–
"CN[C@H](C(=O)N[C@H](C(=O)N(C)[C@H](/C=C(\C)C(=O)N[C@H](CCC(=O)NCCN1C(=O)CC(SC[C@H](N)C(=O)O)C1=O)C(=O)O)C(C)C)C(C)(C)C)C(C)(C)c1ccccc1 (stereo partly drawn) [Example MM1, (3S,6S,9S,10E,14R)-14-(3-{[2-(3-{[(2R)-2-Amino-2-carboxyethyl]sulfanyl}-2,5-dioxopyrrolidin-1-yl)ethyl]amino}-3-oxopropyl)-6-tert-butyl-8,11-dimethyl-4,7,12-trioxo-3-(2-phenylpropan-2-yl)-9-(propan-2-yl)-2,5,8,13-tetraazapentadec-10-en-15-oic Acid]",> 1000,9,exhibited activities for inhibiting microtubule polymerization
CN[C@H](C(=O)N[C@H](C(=O)N(C)[C@H](/C=C(\C)C(=O)N[C@@H](CCC(=O)NCCN1C(=O)CC(SC[C@H](N)C(=O)O)C1=O)C(=O)O)C(C)C)C(C)(C)C)C(C)(C)c1ccccc1 (some centres unmarked) [Example MM11],> 1000,0,–
CN[C@H](C(=O)N[C@H](C(=O)N(C)[C@H](/C=C(\C)C(=O)N[C@H](CCC(=O)O)C(=O)NCCN1C(=O)CC(SC[C@H](N)C(=O)O)C1=O)C(C)C)C(C)(C)C)C(C)(C)c1ccccc1 (some centres unmarked) [Example MM15],> 1000,0,–
CN[C@H](C(=O)N[C@H](C(=O)N(C)[C@H](/C=C(\C)C(=O)N[C@H](CCC(=O)NCCCCN1C(=O)CC(SC[C@H](N)C(=O)O)C1=O)C(=O)O)C(C)C)C(C)(C)C)C(C)(C)c1ccccc1 (some centres unmarked) [Example MM17],850,0,–
CN[C@H](C(=O)N[C@H](C(=O)N(C)[C@H](/C=C(\C)C(=O)N[C@@H](CCC(=O)NCCN1C(=O)CC(SC[C@H](N)C(=O)O)C1=O)C(=O)O)C(C)C)C(C)(C)C)C(C)(C)c1cn(C)c2ccccc12 (some centres unmarked) [Example MM18],541,0,–
CN[C@H](C(=O)N[C@H](C(=O)N(C)[C@H](/C=C(\C)C(=O)N[C@H](CCC(=O)NCCCN1C(=O)CC(SC[C@H](N)C(=O)O)C1=O)C(=O)O)C(C)C)C(C)(C)C)C(C)(C)c1cn(C)c2ccccc12 (some centres unmarked) [Example MM23],942,0,–
CN[C@H](C(=O)N[C@H](C(=O)N(C)[C@H](/C=C(\C)C(=O)NCCCC[C@@H](NC(=O)CCCN1C(=O)CC(SC[C@H](N)C(=O)O)C1=O)C(=O)O)C(C)C)C(C)(C)C)C(C)(C)c1ccccc1 (some centres unmarked) [Example MM28],> 1000,0,–
CN[C@H](C(=O)N[C@H](C(=O)N(C)[C@H](/C=C(\C)C(=O)N[C@H](CCC(=O)NCCN1C(=O)CC(SC[C@H](N)C(=O)O)C1=O)C(=O)O)C(C)C)C(C)(C)C)C(C)(C)c1cccc(C(F)(F)F)c1 (some centres unmarked) [Example MM30],> 1000,12,–
CN[C@H](C(=O)N[C@H](C(=O)N(C)[C@H](/C=C(\C)C(=O)N[C@H](CCC(=O)NCCN1C(=O)CC(SC[C@H](N)C(=O)O)C1=O)C(=O)O)C(C)C)C(C)(C)C)C(C)(C)C1CCCCC1 (some centres unmarked) [Example MM32],> 1000,0,–
CN[C@H](C(=O)N[C@H](C(=O)N(C)[C@H](/C=C(\C)C(=O)N[C@H](CCC(=O)NCCN1C(=O)CC(SC[C@H](N)C(=O)O)C1=O)C(=O)O)C(C)C)C(C)(C)C)C(C)(C)c1cccc(-c2ccccc2)c1 (some centres unmarked) [Example MM39],118,–,–
CN[C@H](C(=O)N[C@H](C(=O)N(C)[C@H](/C=C(\C)C(=O)N[C@H](CCC(=O)NCCN1C(=O)CC(SC[C@H](N)C(=O)O)C1=O)C(=O)O)C(C)C)C(C)(C)C)C(C)(C)c1cccc(C)c1 (some centres unmarked) [Example MM40],146,–,–
CNC(C(=O)N[C@H](C(=O)N(C)[C@H](/C=C(\C)C(=O)N[C@H](CCC(=O)O)C(=O)O)C(C)C)C(C)(C)C)C(C)(C)c1ccc(C(=O)NCCN2C(=O)CC(SC[C@H](N)C(=O)O)C2=O)cc1 (some centres unmarked) [Example MM43],> 1000,–,–
C/C(=C\[C@H](C(C)C)N(C)C(=O)[C@@H](NC(=O)[C@@H](NC(=O)CCCCCN1C(=O)CC(SC[C@H](N)C(=O)O)C1=O)C(C)(C)c1cn(C)c2ccccc12)C(C)(C)C)C(=O)N[C@H](CCC(=O)O)C(=O)O (some centres unmarked) [Example MM44],> 1000,–,–
C/C(=C\[C@H](C(C)C)N(C)C(=O)[C@@H](NC(=O)[C@@H](N)C(C)(C)c1ccccc1)C(C)(C)C)C(=O)N[C@H](CCC(=O)NCCN1C(=O)CC(SC[C@H](N)C(=O)O)C1=O)C(=O)O (some centres unmarked) [Example MM45],> 1000,56,–
C/C(=C\[C@H](C(C)C)N(C)C(=O)[C@@H](NC(=O)[C@@H](N(C)C)C(C)(C)c1ccccc1)C(C)(C)C)C(=O)N[C@H](CCC(=O)NCCN1C(=O)CC(SC[C@H](N)C(=O)O)C1=O)C(=O)O (some centres unmarked) [Example MM46],> 1000,0,–
